{
  "source": "patent US20240285634A1",
  "about": "“COMPOUND AND METHOD FOR TREATING CHEMOTHERAPY-ASSOCIATED GASTROINTESTINAL SIDE EFFECTS” (ONQUALITY PHARMACEUTICALS CHINA LTD., priority 2021, published 2024)",
  "tested_on": "Chemotherapeutic agent-caused constipation models of Balb/c mice",
  "assay": "Relieving effect on constipation caused by a chemotherapeutic agent (Examples 202-364)",
  "format": "in vivo",
  "text": "Construction of mouse animal models: Chemotherapeutic agent-caused constipation models of Balb/c mice were constructed according to the administration mode and frequency of the chemotherapeutic agent as shown in Table 4. […] Thus, chemotherapeutic agent-caused constipation models of mice are very good models to mimic constipation caused by the chemotherapeutic agent.\nBalb/c mice were fed for 1 week, and then divided into groups. The experiment was divided into a control group, a chemotherapeutic agent group, and a group of the compound as shown in Formula I, each of which comprised 10 mice, to perform the administration experiment, for which the administration dosage, mode, time and frequency were shown in Table 4. The control group: being injected or intragastrically administered with the same solvent as that used in the group of the compound as shown in Formula I (the administration mode and time were shown in Table 4), and then being injected or intragastrically administered with the same solvent as that used in the chemotherapeutic agent group (the administration mode was shown in Table 4); the chemotherapeutic agent group: being injected or intragastrically administered with the same solvent as that used in the group of the compound as shown in Formula I (the administration mode and time was shown in Table 4), and then being injected or intragastrically administered with the chemotherapeutic agent (the type, administration mode and dosage were shown in Table 4); the group of the compound as shown in Formula I: being injected or intragastrically administered with the compound as shown in Formula I (the administration mode and time was shown in Table 4), and then being administered with the chemotherapeutic agent (the administration mode and dosage were shown in Table 4).\nThe feces reduction rate was calculated with reference to the method of Ji Eun Kim (Lab Anim Res. 2016 December; 32(4): 231-240.). Feces reduction rate (%)=(the control group−the chemotherapeutic agent group or the group of the compound as shown in Formula I)/the control group*100%\nIt is regarded as effective remission when the feces reduction rate of mice in the group of the compound as shown in Formula I is reduced compared with that in the chemotherapeutic agent group.\nThe feces amount of mice within 3 hours was observed and recorded every day. At the end of the experiment, the number of mice in the group of the compound as shown in Formula I whose feces reduction rate was lower than that of mice in the chemotherapeutic agent group was recorded. Table 4 lists various animal experiment combinations of chemotherapeutic agents and the compound as shown in Formula I, as well as the corresponding experimental results.",
  "data": [
    {"molecule": "CN1CCN(c2ccc(Nc3ncc4cc5n(c4n3)C3(CCCCC3)CNC5=O)nc2)CC1", "note": "[Compound I, Trilaciclib]", "values": [
      {"measurement": "Relative remission rate (%)", "setting": "Example 303, Irinotecan (CPT-11) intraperitoneal injection 260 mg/kg single, compound intravenous injection 150 mg/kg single, 22 h before chemotherapeutic agent, cycle 8 days", "value": 40, "unit": "%"},
      {"measurement": "Relative remission rate (%)", "setting": "Example 304, Irinotecan (CPT-11) intraperitoneal injection 260 mg/kg single, compound intravenous injection 150 mg/kg single, 24 h before chemotherapeutic agent, cycle 8 days", "value": 40, "unit": "%"},
      {"measurement": "Relative remission rate (%)", "setting": "Example 305, Irinotecan (CPT-11) intraperitoneal injection 260 mg/kg single, compound intravenous injection 150 mg/kg single, 48 h before chemotherapeutic agent, cycle 8 days", "value": 0, "unit": "%"},
      {"measurement": "Relative remission rate (%)", "setting": "Example 306, Irinotecan (CPT-11) oral administration 300 mg/kg single, compound intraperitoneal injection 100 mg/kg single, 24 h before chemotherapeutic agent, cycle 10 days", "value": 60, "unit": "%"},
      {"measurement": "Relative remission rate (%)", "setting": "Example 307, Irinotecan (CPT-11) intramuscular injection 260 mg/kg single, compound intramuscular injection 100 mg/kg single, 1 h before chemotherapeutic agent, cycle 7 days", "value": 60, "unit": "%"},
      {"measurement": "Relative remission rate (%)", "setting": "Example 308, Irinotecan (CPT-11) intravenous injection 260 mg/kg single, compound oral administration 100 mg/kg single, 12 h before chemotherapeutic agent, cycle 7 days", "value": 50, "unit": "%"},
      {"measurement": "Relative remission rate (%)", "setting": "Example 309, Fluorouracil 125 (F) and irinotecan 240 (I) mg/kg intravenous injection single, compound intravenous injection 100 mg/kg single, 0.5 h before chemotherapeutic agent, cycle 10 days", "value": 40, "unit": "%"},
      {"measurement": "Relative remission rate (%)", "setting": "Example 310, Fluorouracil 125 (F) and irinotecan 240 (I) mg/kg intravenous injection single, compound intravenous injection 100 mg/kg single, 4 h before chemotherapeutic agent, cycle 10 days", "value": 60, "unit": "%"},
      {"measurement": "Relative remission rate (%)", "setting": "Example 311, Fluorouracil 125 (F) and irinotecan 240 (I) mg/kg intravenous injection single, compound intravenous injection 100 mg/kg single, 8 h before chemotherapeutic agent, cycle 10 days", "value": 60, "unit": "%"},
      {"measurement": "Relative remission rate (%)", "setting": "Example 312, Fluorouracil 125 (F) and irinotecan 240 (I) mg/kg intravenous injection single, compound intravenous injection 100 mg/kg single, 12 h before chemotherapeutic agent, cycle 10 days", "value": 70, "unit": "%"},
      {"measurement": "Relative remission rate (%)", "setting": "Example 313, Fluorouracil 125 (F) and irinotecan 240 (I) mg/kg intravenous injection single, compound intravenous injection 100 mg/kg single, 24 h before chemotherapeutic agent, cycle 10 days", "value": 50, "unit": "%"},
      {"measurement": "Relative remission rate (%)", "setting": "Example 314, Fluorouracil 125 (F) and irinotecan 240 (I) mg/kg intravenous injection single, compound intravenous injection 100 mg/kg single, 48 h before chemotherapeutic agent, cycle 10 days", "value": 0, "unit": "%"},
      {"measurement": "Relative remission rate (%)", "setting": "Example 318, Fluorouracil 125 (F) and irinotecan 240 (I) mg/kg intraperitoneal injection single, compound intraperitoneal injection 100 mg/kg single, 1 h before chemotherapeutic agent, cycle 7 days", "value": 40, "unit": "%"},
      {"measurement": "Relative remission rate (%)", "setting": "Example 319, Fluorouracil 125 (F) and irinotecan 240 (I) mg/kg intraperitoneal injection single, compound intraperitoneal injection 100 mg/kg single, 12 h before chemotherapeutic agent, cycle 7 days", "value": 50, "unit": "%"},
      {"measurement": "Relative remission rate (%)", "setting": "Example 322, Fluorouracil 100 (F) and oxaliplatin 5 (O) and irinotecan 100 (I) mg/kg intraperitoneal injection single, compound intraperitoneal injection 300 mg/kg single, 0.5 h before chemotherapeutic agent, cycle 8 days", "value": 30, "unit": "%"},
      {"measurement": "Relative remission rate (%)", "setting": "Example 323, Fluorouracil 100 (F) and oxaliplatin 5 (O) and irinotecan 100 (I) mg/kg intraperitoneal injection single, compound intraperitoneal injection 300 mg/kg single, 4 h before chemotherapeutic agent, cycle 8 days", "value": 30, "unit": "%"},
      {"measurement": "Relative remission rate (%)", "setting": "Example 324, Fluorouracil 100 (F) and oxaliplatin 5 (O) and irinotecan 100 (I) mg/kg intraperitoneal injection single, compound intraperitoneal injection 300 mg/kg single, 8 h before chemotherapeutic agent, cycle 8 days", "value": 60, "unit": "%"},
      {"measurement": "Relative remission rate (%)", "setting": "Example 325, Fluorouracil 100 (F) and oxaliplatin 5 (O) and irinotecan 100 (I) mg/kg intraperitoneal injection single, compound intraperitoneal injection 300 mg/kg single, 12 h before chemotherapeutic agent, cycle 8 days", "value": 50, "unit": "%"},
      {"measurement": "Relative remission rate (%)", "setting": "Example 326, Fluorouracil 100 (F) and oxaliplatin 5 (O) and irinotecan 100 (I) mg/kg intraperitoneal injection single, compound intraperitoneal injection 300 mg/kg single, 24 h before chemotherapeutic agent, cycle 8 days", "value": 40, "unit": "%"},
      {"measurement": "Relative remission rate (%)", "setting": "Example 327, Fluorouracil 100 (F) and oxaliplatin 5 (O) and irinotecan 100 (I) mg/kg intraperitoneal injection single, compound intraperitoneal injection 300 mg/kg single, 48 h before chemotherapeutic agent, cycle 8 days", "value": 0, "unit": "%"},
      {"measurement": "Relative remission rate (%)", "setting": "Example 328, Fluorouracil 100 (F), oxaliplatin 5 (O), irinotecan 100 (I) and tetrahydrofolic acid 100 (L) mg/kg intravenous injection single, compound intravenous injection 100 mg/kg single, 0.5 h before chemotherapeutic agent, cycle 8 days", "value": 20, "unit": "%"},
      {"measurement": "Relative remission rate (%)", "setting": "Example 329, Fluorouracil 100 (F), oxaliplatin 5 (O), irinotecan 100 (I) and tetrahydrofolic acid 100 (L) mg/kg intravenous injection single, compound intravenous injection 100 mg/kg single, 1 h before chemotherapeutic agent, cycle 8 days", "value": 30, "unit": "%"},
      {"measurement": "Relative remission rate (%)", "setting": "Example 330, Fluorouracil 100 (F), oxaliplatin 5 (O), irinotecan 100 (I) and tetrahydrofolic acid 100 (L) mg/kg intravenous injection single, compound intravenous injection 100 mg/kg single, 2 h before chemotherapeutic agent, cycle 8 days", "value": 30, "unit": "%"},
      {"measurement": "Relative remission rate (%)", "setting": "Example 331, Fluorouracil 100 (F), oxaliplatin 5 (O), irinotecan 100 (I) and tetrahydrofolic acid 100 (L) mg/kg intravenous injection single, compound intravenous injection 100 mg/kg single, 3 h before chemotherapeutic agent, cycle 8 days", "value": 50, "unit": "%"},
      {"measurement": "Relative remission rate (%)", "setting": "Example 332, Fluorouracil 100 (F), oxaliplatin 5 (O), irinotecan 100 (I) and tetrahydrofolic acid 100 (L) mg/kg intravenous injection single, compound intravenous injection 100 mg/kg single, 4 h before chemotherapeutic agent, cycle 8 days", "value": 50, "unit": "%"},
      {"measurement": "Relative remission rate (%)", "setting": "Example 333, Fluorouracil 100 (F), oxaliplatin 5 (O), irinotecan 100 (I) and tetrahydrofolic acid 100 (L) mg/kg intravenous injection single, compound intravenous injection 100 mg/kg single, 6 h before chemotherapeutic agent, cycle 8 days", "value": 40, "unit": "%"},
      {"measurement": "Relative remission rate (%)", "setting": "Example 334, Fluorouracil 100 (F), oxaliplatin 5 (O), irinotecan 100 (I) and tetrahydrofolic acid 100 (L) mg/kg intravenous injection single, compound intravenous injection 100 mg/kg single, 8 h before chemotherapeutic agent, cycle 8 days", "value": 60, "unit": "%"},
      {"measurement": "Relative remission rate (%)", "setting": "Example 335, Fluorouracil 100 (F), oxaliplatin 5 (O), irinotecan 100 (I) and tetrahydrofolic acid 100 (L) mg/kg intravenous injection single, compound intravenous injection 100 mg/kg single, 10 h before chemotherapeutic agent, cycle 8 days", "value": 60, "unit": "%"}
    ]}
  ]
}
